Measured values reported in patent publication US20120231073A1, “DEXLANSOPRAZOLE COMPOSITIONS” (DR. REDDY'S LABORATORIES, INC., priority 2008, published 2012).

Tests used:
[1] = Particle size distribution using a Malvern instrument; type: physicochemical
Excerpt: The D10, D50, and D90 values are useful ways for indicating a particle size distribution. D90 is the size value where at least 90 volume percent of the particles have a size smaller than the said value; Likewise D10 refers to 10 volume percent of the particles having a size smaller than the said value. D50 refers to at least 50 volume percent of the particles having a size smaller than the said value and D[4,3] value refers to the mean particle size. Methods for determining D10, D50 D90 and D[4,3] include laser light diffraction, such as using equipment sold by Malvern Instruments Ltd., Malvern, Worcestershire, United Kingdom. Other types of equipment may be used, as is known in the art.
The premixes of Example 1 and Example 2 are analyzed for particle size distribution using a Malvern instrument and the results are below: […]

[2] = Glass transition temperature (Tg) by differential scanning calorimetry; type: physicochemical
Protocol: The glass transition temperature (Tg) is determined for premixes using differential scanning calorimetry and the results are below:
The glass transition temperatures of the premix compositions are greater than that of dexlansoprazole (amorphous).

Cc1c(OCC(F)(F)F)ccnc1C[S@@+]([O-])c1nc2ccccc2[nH]1 [Amorphous dexlansoprazole, (+)-2-[(R)-{[3-methyl-4-(2,2,2-trifluoroethoxy)pyridin-2-yl]methyl}sulfinyl]-1H-benzimidazole]
D10 [1]: 9.061 μm
D50 [1]: 22.182 μm
D90 [1]: 42.598 μm
Tg (glass transition temperature) [2]: 55.48 °C
